Assay [1] has as its system constitutive active colorectal cancer cell (CRC) Wnt pathway. Description: Cellular reporter assay, HCT116 cells stably transfected with Super TopFlash vector (HCT116-TOP), luciferase readout. As to conditions: Homo sapiens, HCT-116, 36 hours incubation, luciferase expression, average or median values. The format is cell-based. The method, then: In order to discover and characterize small molecules which inhibit the constitutive active colorectal cancer cell (CRC) Wnt pathway, a cellular reporter assay was employed. The corresponding assay cell was generated by transfection of the colorectal cancer cell line HCT116 (ATCC, #CCL-247) with the Super TopFlash vector (Morin, Science 275, 1997, 1787-1790; Molenaar et al., Cell 86 (3), 1996, 391-399). The HCT116 cell line is cultivated at 37° C. and 5% CO2 in DMEM/F-12 (Life Technologies, #11320-074), supplemented with 2 mM glutamine, 20 mM HEPES, 1.4 mM pyruvate, 0.15% Na-bicarbonate and 10% foetal bovine serum (GIBCO, #10270), this cancer cell line is pathophysiological relevant since it carries a deletion of position S45 in the β-catenin gene, leading to constitutive active Wnt signaling. Stable transfectants were generated by cotransfection with pcDNA3 and selection of stable transfected cells with 1 mg/mL G418.
(§1) In preparation of the assay, the two cell lines were plated 24 hours before at 10000 cells per well of a 384 micro titre plate (MTP) in 30 μL growth medium. Selective inhibitory activity for small molecules on the mutated Wnt pathway was determined after parallel incubation of both (TOP and FOP) HCT116 reporter cell lines with a compound dilution series from 50 μM to 15 nM in steps of 3.16-fold dilutions in CAFTY buffer (130 mM NaCl, 5 mM KCl, 20 mM HEPES, 1 mM MgCl2, 5 mM NaHCO3, pH 7.4) containing 2 mM Ca^2+ and 0.01% BSA. The compounds were thereby serially prediluted in 100% DMSO and thereafter in addition 50 fold into the CAFTY compound dilution buffer (described above). From this dilution 10 μL were added to the cells in 30 μL growth medium and incubated for 36 hours at 37° C. and 5% CO2. Thereafter luciferase assay buffer (1:1 mixture of luciferase substrate buffer (20 mM Tricine, 2.67 mM MgSO4, 0.1 mM EDTA, 4 mM DTT, 270 μM Coenzyme A, 470 μM Luciferin, 530 μM ATP, ph adjusted to pH 7.8 with a sufficient volume of 5M NaOH) and Triton buffer (30 mL Triton X-100, 115 mL glycerol, 308 mg Dithiothreitol, 4.45 g Na2HPO4.2H2O, 3.03 g TRIS HCl, ad 1I H2O, pH 7.8) was added as equal volume to the compound solution on the cells to determine luciferase expression as a measure of Wnt signaling activity in a luminometer.
For orientation: In a reporter assay the amount or activity of a reporter protein is the signal.

The subject of assay [2] is FOP control vector (randomized, non-functional sequence instead of functional TCF elements) in HCT116 cells. Description: Control reporter assay, HCT116 cells stably transfected with FOP control vector (HCT116-FOP), luciferase readout. It is filed as cell-based. Particulars: Homo sapiens, HCT-116, 36 hours incubation, luciferase expression, dilution series up to 50 μM. The method, then: In a parallel approach, HCT116 cells were cotransfected with the FOP control vector and pcDNA3. The FOP vector is identical to the TOP construct, but it contains instead of functional TCF elements a randomized, non-functional sequence. For this transfection a stable transfected cell line was generated as well.
as §1

Data on 23 compounds can be found in US20180042931A1 (Bayer Pharma Aktiengesellschaft, priority 2015, published 2018).

Molecules are shown by their SMILES. Bounds are passed on as bounds.

The IC50 is the midpoint of a concentration-inhibition curve.

On to `COc1ccc(NC(=O)c2ccc(-c3ccc(N)nc3)cc2)cc1NC(=O)CN1CCOCC1` [Example 1, 4-(6-aminopyridin-3-yl)-N-{4-methoxy-3-[(morpholin-4-ylacetyl)amino]phenyl}benzamide], for which the results for the IC50 in assay [1] and in assay [2] were 625 nM and not below 50000 nM, respectively.
As for `COc1ccc(NC(=O)c2ccc(-c3cncnc3)cc2)cc1NC(=O)CN1CCOCC1` [Example 2, N-{4-methoxy-3-[(morpholin-4-ylacetyl)amino]phenyl}-4-(pyrimidin-5-yl)benzamide], the values for the IC50 in assay [1] and in assay [2] were 3110 nM and not below 50000 nM, respectively.
The matching figures for `Nc1ncc(-c2ccc(NC(=O)c3ccc(OC(F)(F)F)c(NC(=O)CN4CCOCC4)c3)cc2)cn1` [Example 3, N-[4-(2-aminopyrimidin-5-yl)phenyl]-3-[(morpholin-4-ylacetyl)amino]-4-(trifluoromethoxy)-benzamide]: 49 nM and not below 50000 nM.
As for `O=C(CN1CCOCC1)Nc1cc(C(=O)Nc2ccc(-c3cccnc3F)cc2)ccc1OC(F)(F)F` [Example 4, N-[4-(2-fluoropyridin-3-yl)phenyl]-3-[(morpholin-4-ylacetyl)amino]-4-(trifluoromethoxy)benzamide], the IC50 is 14.8 nM in assay [1] and not below 50000 nM in assay [2].
As to `Cn1cc(-c2ccc(NC(=O)c3ccc(OC(F)(F)F)c(NC(=O)CN4CCOCC4)c3)cc2)cn1` [Example 5, N-[4-(1-methyl-1H-pyrazol-4-yl)phenyl]-3-[(morpholin-4-ylacetyl)amino]-4-(trifluoromethoxy)-benzamide], the figures for the IC50 in assay [1] and in assay [2] were 160 nM and not below 50000 nM, respectively.
Consider `O=C(CN1CCOCC1)Nc1cc(C(=O)Nc2ccc(-c3cn[nH]c3)cc2)ccc1OC(F)(F)F` [Example 6, 3-[(morpholin-4-ylacetyl)amino]-N-[4-(1H-pyrazol-4-yl)phenyl]-4-(trifluoromethoxy)benzamide], for which the half-inhibitory concentration (IC50) in assay [1] was 180 nM; in assay [2], not below 50000 nM.
In the case of `Nc1ccc(-c2ccc(NC(=O)c3ccc(OC(F)(F)F)c(NC(=O)CN4CCOCC4)c3)cc2)cn1` [Example 7, N-[4-(6-aminopyridin-3-yl)phenyl]-3-[(morpholin-4-ylacetyl)amino]-4-(trifluoromethoxy)benzamide], the IC50 is 22.8 nM in assay [1] and not below 50000 nM in assay [2].
With `O=C(CN1CCOCC1)Nc1cc(C(=O)Nc2ccc(-c3cncnc3)cc2)ccc1OC(F)(F)F` [Example 8, 3-[(morpholin-4-ylacetyl)amino]-N-[4-(pyrimidin-5-yl)phenyl]-4-(trifluoromethoxy)benzamide], the IC50 in assay [1] was 66.5 nM; in assay [2], not below 50000 nM.
For the compound `COc1ncc(-c2ccc(NC(=O)c3ccc(OC(F)(F)F)c(NC(=O)CN4CCOCC4)c3)cc2)cn1` [Example 9, N-[4-(2-methoxypyrimidin-5-yl)phenyl]-3-[(morpholin-4-ylacetyl)amino]-4-(trifluoromethoxy)-benzamide], the values for the half-inhibitory concentration (IC50) in assay [1] and in assay [2] were 410 nM and not below 50000 nM, respectively.
`CN(C)c1ncc(-c2ccc(NC(=O)c3ccc(OC(F)(F)F)c(NC(=O)CN4CCOCC4)c3)cc2)cn1` [Example 10, N-{4-[2-(dimethylamino)pyrimidin-5-yl]phenyl}-3-[(morpholin-4-ylacetyl)amino]-4-(trifluoromethoxy)benzamide]: the values for the IC50 in assay [1] and in assay [2] were 60.9 nM and not below 50000 nM, respectively.
For the compound `O=C(CN1CCOCC1)Nc1cc(C(=O)Nc2ccc(-c3cnc(N4CCC4)nc3)cc2)ccc1OC(F)(F)F` [Example 11, N-{4-[2-(azetidin-1-yl)pyrimidin-5-yl]phenyl}-3-[(morpholin-4-ylacetyl)amino]-4-(trifluoromethoxy)benzamide], the IC50 was 200 nM in assay [1] and not below 50000 nM in assay [2].
On to `O=C(CN1CCOCC1)Nc1cc(C(=O)Nc2ccc(-c3cnc(C(F)(F)F)nc3)cc2)ccc1OC(F)(F)F` [Example 12, 3-[(morpholin-4-ylacetyl)amino]-4-(trifluoromethoxy)-N-{4-[2-(trifluoromethyl)pyrimidin-5-yl]phenyl}benzamide], for which the IC50 was determined as 2660 nM in assay [1] and 32000 nM in assay [2].
As to `Cc1ccc(-c2ccc(NC(=O)c3ccc(OC(F)(F)F)c(NC(=O)CN4CCOCC4)c3)cc2)cn1` [Example 13, N-[4-(6-methylpyridin-3-yl)phenyl]-3-[(morpholin-4-ylacetyl)amino]-4-(trifluoromethoxy)benzamide], the IC50 in assay [1] is 557 nM; in assay [2], not below 50000 nM.
As for `O=C(CN1CCOCC1)Nc1cc(C(=O)Nc2ccc(-c3ccc(CO)nc3)cc2)ccc1OC(F)(F)F` [Example 14, N-{4-[6-(hydroxymethyl)pyridin-3-yl]phenyl}-3-[(morpholin-4-ylacetyl)amino]-4-(trifluoromethoxy)benzamide], the IC50 in assay [1] is 377 nM; in assay [2] it was not below 50000 nM.
The matching figures for `COc1ccc(-c2ccc(NC(=O)c3ccc(OC(F)(F)F)c(NC(=O)CN4CCOCC4)c3)cc2)cn1` [Example 15, N-[4-(6-methoxypyridin-3-yl)phenyl]-3-[(morpholin-4-ylacetyl)amino]-4-(trifluoromethoxy)benzamide]: 545 nM and not below 50000 nM.
As to `Cc1ncccc1-c1ccc(NC(=O)c2ccc(OC(F)(F)F)c(NC(=O)CN3CCOCC3)c2)cc1` [Example 16, N-[4-(2-methylpyridin-3-yl)phenyl]-3-[(morpholin-4-ylacetyl)amino]-4-(trifluoromethoxy)benzamide], the IC50 in assay [1] was 117 nM; in assay [2] it was 41500 nM.
As for `COc1ncccc1-c1ccc(NC(=O)c2ccc(OC(F)(F)F)c(NC(=O)CN3CCOCC3)c2)cc1` [Example 17, N-[4-(2-methoxypyridin-3-yl)phenyl]-3-[(morpholin-4-ylacetyl)amino]-4-(trifluoromethoxy)-benzamide], the IC50 in assay [1] was 285 nM; in assay [2], not below 50000 nM.
The matching figures for `O=C(CN1CCOCC1)Nc1cc(C(=O)Nc2ccc(-c3cccnc3)cc2)ccc1OC(F)(F)F` [Example 18, 3-[(morpholin-4-ylacetyl)amino]-N-[4-(pyridin-3-yl)phenyl]-4-(trifluoromethoxy)benzamide]: 78.7 nM and not below 50000 nM.
Regarding `Nc1ncc(-c2ccc(NC(=O)c3ccc(OC(F)(F)F)c(NC(=O)C4(N5CCOCC5)CC4)c3)cc2)cn1` [Example 19, N-[4-(2-aminopyrimidin-5-yl)phenyl]-3-({[1-(morpholin-4-yl)cyclopropyl]carbonyl}amino)-4-(trifluoromethoxy)benzamide], the IC50 in assay [1] was 3.2 nM; in assay [2], not below 50000 nM.
In the case of `O=C(Nc1ccc(-c2cccnc2F)cc1)c1ccc(OC(F)(F)F)c(NC(=O)C2(N3CCOCC3)CC2)c1` [Example 20, N-[4-(2-fluoropyridin-3-yl)phenyl]-3-({[1-(morpholin-4-yl)cyclopropyl]carbonyl}amino)-4-(trifluoromethoxy)benzamide], the values for the IC50 in assay [1] and in assay [2] were 3.15 nM and not below 50000 nM, respectively.
Turning to `Nc1ccc(-c2ccc(NC(=O)c3ccc(OC(F)(F)F)c(NC(=O)C4(N5CCOCC5)CC4)c3)cc2)cn1` [Example 21, N-[4-(6-aminopyridin-3-yl)phenyl]-3-({[1-(morpholin-4-yl)cyclopropyl]carbonyl}amino)-4-(trifluoromethoxy)benzamide], the IC50 in assay [1] was 4.55 nM; in assay [2] it was 46500 nM.
The matching figures for `O=C(Nc1ccc(-c2cccnc2F)cc1)c1ccc(Cl)c(NC(=O)C2(N3CCOCC3)CC2)c1` [Example 22, 4-chloro-N-[4-(2-fluoropyridin-3-yl)phenyl]-3-({[1-(morpholin-4-yl)cyclopropyl]carbonyl}amino)-benzamide]: 140 nM and not below 50000 nM.
For the compound `Nc1ncc(-c2ccc(NC(=O)c3ccc(Cl)c(NC(=O)C4(N5CCOCC5)CC4)c3)cc2)cn1` [Example 23, N-[4-(2-aminopyrimidin-5-yl)phenyl]-4-chloro-3-({[1-(morpholin-4-yl)cyclopropyl]carbonyl}amino)-benzamide], the IC50 in assay [1] is 26.2 nM; in assay [2] it was not below 50000 nM.
